Consider 11 compounds from patent publication US9073864B2, “Aromatic ring compound” (TAKEDA PHARMACEUTICAL COMPANY LIMITED, priority 2012, dated 2015).

For one assay, the system named is Wistar fatty rat. The assay can be described thus: Hypoglycemic action in Wistar fatty rat (single administration). The class given is in vivo. Particulars: 10 mg/kg oral, 4 hr after administration, male Wistar fatty rats, change relative to non-administration group. On the procedure: Hypoglycemic Action in Wistar Fatty Rat (Single Administration)
Wistar fatty rats (male, 25- to 26-week-old) were orally administered with a 0.5% methylcellulose suspension containing a test compound (10 mg/kg body weight) (test compound administration group, 4-6 per group) or 0.5% methylcellulose solution (test compound non-administration group, 4-6 per group), blood samples were collected from the rat tail vein 4 hr after the administration, and the hypoglycemic action was evaluated using the blood. The blood glucose was measured using Model 7180 HITACHI automatic analyzer (Hitachi, Ltd.).
In each animal of the test compound administration group and the test compound non-administration group, changes in the blood glucose level from that before administration was calculated, the difference between the “average change of test compound non-administration group” and the “change in each animal of test compound administration group” was calculated as the “change in blood glucose due to test compound”, and the average of each group was taken as the “blood glucose change value (mg/dL)”.

The target of assay [1] is T1, human type glucagon receptor (Homo sapiens, UniProt P47871).
T1 construct: an about 1.4 kb DNA fragment containing glucagon receptor gene was recovered from the gel; expressed in transfected cells; host or cells: FreeStyle CHO cells (transient expression); membrane fraction prepared by homogenisation and ultracentrifugation
Briefly: Measurement of glucagon binding inhibitory activity ([125I]-glucagon, receptor membrane protein). As to conditions: test compound 10 μM; 0.4% DMSO alone = 0%, unlabeled glucagon 1 μM = 100%; read-out: inhibitory rate (%) at 10 μM. As for the experimental part: The glucagon binding inhibitory action of the compound of the present invention was evaluated by the following method.
(1) Cloning of Human Glucagon Receptor Gene
Human glucagon receptor gene was cloned by PCR reaction using human pancreas Marathon-ready cDNA (Clontech Laboratories, Inc.) as a template and the following primer set.
The PCR reaction was performed using Advantage 2 polymerase (Clontech Laboratories, Inc.) and according to the attached protocol. The obtained PCR product was subjected to agarose gel (1%) electrophoresis, an about 1.4 kb DNA fragment containing glucagon receptor gene was recovered from the gel, and digested with restriction enzymes EcoRI and NotI. The restriction enzyme-treated DNA was subjected to agarose gel (1%) electrophoresis, an about 1.4 kb DNA fragment was recovered and ligated with plasmid pMSRaneo digested with restriction enzymes EcoRI and NotI to give human type glucagon receptor expression plasmid DNA “pMSRaneo/hGCGR”. The base sequence of the inserted fragment was confirmed to be identical with the object sequence.
(2) Preparation of Glucagon Receptor Membrane Protein
Human type glucagon receptor was expressed using FreeStyle CHO Expression System (Invitrogen™). According to the manual attached to the FreeStyle CHO Expression System, and using the human type glucagon receptor expression plasmid DNA “pMSRaneo/hGCGR” produced in the above-mentioned (1), transient expression was performed by FreeStyle CHO cells. The above-mentioned DNA was transfected, and shaking culture was performed at 37° C., 8% CO2, 125 rpm for 2 days. The culture medium was centrifuged at 2,000 rpm for 10 min and the cells were recovered. The recovered cells were washed with PBS, suspended in homogenate buffer [10 mM NaHCO3 (pH 7.4), 1 mM EDTA, complete EDTA-free (Roche, Ltd., 1 tablet/50 ml)], and the cells were disrupted by a Polytron cell disruption apparatus (Kinematica AG). The disruption solution was centrifuged at 2,000 rpm for 10 min, and the supernatant was recovered. The supernatant was centrifuged at 35,000 rpm for 60 min, and the precipitate was suspended in a buffer [20 mM Tris-HCl (pH 7.4), 5 mM EDTA, complete EDTA-free (Roche, Ltd., 1 tablet/50 ml)] to give a glucagon receptor membrane protein.
(3) Measurement of Glucagon Binding Inhibitory Activity
The reaction was started by adding 50 μl of a glucagon receptor membrane protein solution diluted with a reaction buffer [50 mM HEPES (pH 7.4), 5 mM EGTA, 5 mM magnesium chloride, 0.1% BSA, 0.005% Tween20] to 100 μg/ml, 25 μl of a test compound solution containing 0.4% DMSO, which solution was prepared with the reaction buffer to a compound concentration of 40 μM, and 25 μl of radiolabeled glucagon ([^125I]-Receptor Grade Glucagon; Perkin Elmer Inc.) diluted with the reaction buffer to 200 pM to each well of a 96 well plate (Corning Incorporated). The plate was stood at room temperature for 90 min, then the reaction solution was transferred from the reaction plate onto a 96 well unifilter GF/C plate (Perkin Elmer Inc.) by a cell harvester (Perkin Elmer Inc.), and suctioned to collect a membrane fraction on the filter. The filter was immersed in a 0.3% polyethyleneimine solution in advance to prevent non-specific adsorption of the labeled ligand. The filter was washed 4 times with the reaction buffer, and dried at 42° C. for 2 hr. To each well was added 25 μl of scintillator (MicroScint0; Perkin Elmer Inc.), and the amount of fluorescence was measured by a microplate scintillation counter (TopCount NXT™; Perkin Elmer Inc.).
The inhibitory rate (%) of the well added with the test compound (10 μM; containing 0.4% DMSO solution) was calculated wherein the reaction rate of the well added with 0.4% DMSO alone was 0% inhibitory rate and that of the well added with unlabeled glucagon (final concentration 1 μM) was 100% inhibitory rate.

For assay [2], the system named is streptozotocin (STZ)-induced type 1 diabetes model rat. Briefly: Suppressive action on hyperglycemia after eating in STZ-induced type 1 diabetes model rat bred with time-limited feeding. The class given is in vivo. Particulars: 10 mg/kg p.o. q.d., detemir 10 U/kg s.c., n=8; for average plasma glucose concentration, 1 hr: 1 hr after administration and start of feeding; for average plasma glucose concentration, 2 hr: 2 hr after administration (immediately before end of feeding); for average plasma glucose concentration, value before administration: next day of 3 days repeated compound administration, immediately before feeding and dosing. On the procedure:
Suppressive Action on Hyperglycemia after Eating in Streptozotocin (STZ)-Induced Type 1 Diabetes Model Rat Bred with Time-Limited Feeding
Type 1 diabetes model STZ rat was generated by intravenously administering streptozotocin (STZ: Wako Pure Chemical Industries, Ltd., 65 mg/kg) after overnight fasting. From 1 week after the STZ treatment, time-limited feeding (feeding twice per day for 2 hours each time at 9:00-11:00 am and 16:00-18:00 pm) was started. On day 6 of breeding with time-limited feeding, blood samples were collected immediately before feeding in the morning and after 2 hours of feeding (immediately before end of feeding), and the rats were divided into two groups of detemir (long-acting insulin preparation) treatment group and detemir non-treatment group, with an increase in the plasma glucose concentration associated with the feed intake as an index. In the detemir treatment group, repeated subcutaneous administration of detemir (10 U/kg body weight, Novo Nordisk Pharma Ltd., once per day) was started after the end of feeding in the afternoon, and continued for 7 days until one day before evaluation of the influence of compound administration. Similarly, the detemir non-treatment group was subcutaneously administered repeatedly with saline for 7 days.
The day after repeated administration of detemir for 3 days, blood samples were collected in the same manner as above, and the animals in the detemir treatment group were divided into 3 groups based on an increase in the plasma glucose concentration associated with the feed intake. Each group was orally administered repeatedly with a 0.5% methylcellulose (MC) suspension containing the compound of Example 3 or 21 (10 mg/kg, q.d.) (8 per each group), or 0.5% methylcellulose solution (compound non-administration group, 8) for 4 days before feeding in the morning, starting from the next day of repeated administration of detemir for 4 days.
The next day of repeated administration of detemir for 7 days (the next day of repeated administration of compound for 3 days), blood samples were collected immediately before the start of feeding (and each compound administration) in the morning to obtain values before administration. Also, blood samples were collected after 1 and 2 hours of the administration (immediately before end of feeding), and an influence of compound administration on the profile of plasma glucose concentration after feed intake was evaluated.
Throughout the test, blood samples were collected from the tail vein, and the plasma glucose concentration was measured using Model 7180 HITACHI automatic analyzer.

T1 sequence (P47871 26-477): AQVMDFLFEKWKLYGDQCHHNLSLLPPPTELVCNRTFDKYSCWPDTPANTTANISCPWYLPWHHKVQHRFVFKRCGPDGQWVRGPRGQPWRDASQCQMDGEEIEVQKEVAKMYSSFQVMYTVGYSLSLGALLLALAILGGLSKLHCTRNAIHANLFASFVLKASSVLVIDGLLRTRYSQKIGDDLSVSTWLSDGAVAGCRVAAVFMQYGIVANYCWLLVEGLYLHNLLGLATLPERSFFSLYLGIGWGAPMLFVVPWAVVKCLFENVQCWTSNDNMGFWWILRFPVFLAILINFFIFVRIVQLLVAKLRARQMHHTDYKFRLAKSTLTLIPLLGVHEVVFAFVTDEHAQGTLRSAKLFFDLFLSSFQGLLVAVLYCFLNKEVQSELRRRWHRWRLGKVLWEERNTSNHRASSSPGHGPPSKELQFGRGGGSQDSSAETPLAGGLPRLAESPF

For `Cc1cc(-c2ccc(C(F)(F)F)cn2)ccc1C(CCC(F)(F)F)Nc1ccc(C(=O)N2CCC[C@@H](C(=O)O)C2)cc1` (stereo partly drawn) [Example 1, (3R)-1-(4-((4,4,4-trifluoro-1-(2-methyl-4-(5-(trifluoromethyl)pyridin-2-yl)phenyl)butyl)amino)benzoyl)piperidine-3-carboxylic acid], the “blood glucose change value” with Wistar fatty rat was -162.9 mg/dL. Moreover, the inhibition at 10 µM in assay [1] is 84%.
In the same order, the values of `Cc1cc(-c2ncc(Cl)cn2)ccc1C(CCC(F)(F)F)Nc1ccc(C(=O)N2CCC[C@@H](C(=O)O)C2)cc1` (stereo partly drawn) [Example 2, (3R)-1-(4-((1-(4-(5-chloropyrimidin-2-yl)-2-methylphenyl)-4,4,4-trifluorobutyl)amino)benzoyl)piperidine-3-carboxylic acid] are -149.8 mg/dL and 92%.
Regarding `Cc1cc(-c2ncc(C(F)(F)F)cn2)ccc1C(CCC(F)(F)F)Nc1ccc(C(=O)N2CCC[C@@H](C(=O)O)C2)cc1` (stereo partly drawn) [Example 3, (3R)-1-(4-((4,4,4-trifluoro-1-(2-methyl-4-(5-(trifluoromethyl)pyrimidin-2-yl)phenyl)butyl)amino)benzoyl)piperidine-3-carboxylic acid], the “blood glucose change value” in the assay with Wistar fatty rat is -142.5 mg/dL. In assay [2], the “average plasma glucose concentration, 1 hr” value amounted to 463.6 mg/dL; the “average plasma glucose concentration, 2 hr” value turned out to be 555.2 mg/dL; the “average plasma glucose concentration, value before administration” value is given as 397.0 mg/dL. For the same compound, the inhibition at 10 µM in assay [1] came to 91%.
Take `CCc1cnc(-c2ccc(C(CCC(F)(F)F)Nc3ccc(C(=O)N4CCC[C@@H](C(=O)O)C4)cc3)c(C)c2)nc1` (stereo partly drawn) [Example 4, (3R)-1-(4-((1-(4-(5-ethylpyrimidin-2-yl)-2-methylphenyl)-4,4,4-trifluorobutyl)amino)benzoyl)piperidine-3-carboxylic acid]: the “blood glucose change value” in the assay on Wistar fatty rat was -130.4 mg/dL. Moreover, the inhibition at 10 µM in assay [1] is 95%.
As for `Cc1cc(-n2cc3c(n2)CCCC3)ccc1C(CCC(F)(F)F)Nc1ccc(C(=O)N2CCC[C@@H](C(=O)O)C2)cc1` (stereo partly drawn) [Example 21, (3R)-1-(4-((4,4,4-trifluoro-1-(2-methyl-4-(4,5,6,7-tetrahydro-2H-indazol-2-yl)phenyl)butyl)amino)benzoyl)piperidine-3-carboxylic acid], the “blood glucose change value” in the assay with Wistar fatty rat was -136.0 mg/dL. In addition, in assay [2], the “average plasma glucose concentration, 1 hr” value is given as 471.1 mg/dL; the “average plasma glucose concentration, 2 hr” value was determined as 552.0 mg/dL; the “average plasma glucose concentration, value before administration” value is 435.6 mg/dL. Further, the inhibition at 10 µM in assay [1] amounted to 90%.
Take `O=C(O)[C@@H]1CCCN(C(=O)c2ccc(NC(CCC(F)(F)F)c3ccc(-c4ccccc4)cn3)cc2)C1` (stereo partly drawn) [Example 25, (3R)-1-(4-((4,4,4-trifluoro-1-(5-phenylpyridin-2-yl)butyl)amino)benzoyl)piperidine-3-carboxylic acid]: in assay [1], the inhibition at 10 µM turned out to be 71%.
Same read-out and setting: to `Cc1cc(-c2ccc(C(F)(F)F)cn2)ccc1C(Nc1ccc(C(=O)N2CCC[C@@H](C(=O)O)C2)cc1)C(C)C` (stereo partly drawn) [Example 26, (3R)-1-(4-((2-methyl-1-(2-methyl-4-(5-(trifluoromethyl)pyridin-2-yl)phenyl)propyl)amino)benzoyl)piperidine-3-carboxylic acid] belongs 88%; to `O=C(O)[C@@H]1CCCN(C(=O)c2ccc(NC(CCC(F)(F)F)c3ccc(-c4ccc(Cl)cc4)cc3)cc2)C1` (stereo partly drawn) [Example 27, (3R)-1-(4-((1-(4′-chlorobiphenyl-4-yl)-4,4,4-trifluorobutyl)amino)benzoyl)piperidine-3-carboxylic acid], 86%; to `O=C(O)[C@@H]1CCCN(C(=O)c2ccc(NC(CCC(F)(F)F)c3ccc(-c4ccc(Cl)cc4)cc3)nc2)C1` (stereo partly drawn) [Example 28, (3R)-1-((6-((1-(4′-chlorobiphenyl-4-yl)-4,4,4-trifluorobutyl)amino)pyridin-3-yl)carbonyl)piperidine-3-carboxylic acid], 98%.
Same read-out and setting: to `CCc1cnc(-c2ccc(C(Nc3ccc(C(=O)N4CCC[C@@H](C(=O)O)C4)cc3)C(C)C)c(C)c2)nc1` (stereo partly drawn) [Example 112, (3R)-1-(4-((1-(4-(5-ethylpyrimidin-2-yl)-2-methylphenyl)-2-methylpropyl)amino)benzoyl)piperidine-3-carboxylic acid] belongs 90%; to `Cc1cc(-n2cc3c(n2)CCCC3)ccc1C(Nc1ccc(C(=O)N2CCC[C@@H](C(=O)O)C2)cc1)C(C)C` (stereo partly drawn) [Example 117, (3R)-1-(4-((2-methyl-1-(2-methyl-4-(4,5,6,7-tetrahydro-2H-indazol-2-yl)phenyl)propyl)amino)benzoyl)piperidine-3-carboxylic acid], 90%.
